Laboratory results from patent US20240043410A1, “SULPHAMOYL UREA DERIVATIVES CONTAINING ALKYL-OXACYCLOALKYL MOIETY AND USES THEREOF” (NodThera Limited, priority 2020, published 2024).
Values after ≈ are worked out from the molar mass of the structure shown.

Experiments:
[1] = test system: P-glycoprotein (P-gp) or breast cancer resistance protein (BCRP); test: BCRP and P-gp Caco-2 permeability assay; type: in vitro ADME; conditions: efflux ratio, Caco-2 cells
Procedure: BCRP and P-gp Caco-2 Studies. The compounds of the present disclosure were tested in a Caco-2 permeability assay to assess whether they are actively transported out of cells by the efflux proteins, P-glycoprotein (P-gp) or breast cancer resistance protein (BCRP).
Caco-2 cells were used between passage numbers 40-60. Cells were seeded onto Millipore Multiscreen Transwell plates at […]. The cells were cultured in DMEM and media was changed every two or three days. On Day 18-22 the BCRP inhibition study was performed. Cell culture and assay incubations were carried out at 37° C. in an atmosphere of 5% CO2 with a relative humidity of 95%. On the day of the assay, the monolayers were prepared by rinsing both apical and basolateral surfaces twice with warmed (37° C.) transport buffer (Hanks Balanced Salt Solution [HBSS] containing 25 mM HEPES and 4.45 mM glucose, pH 7.4). Cells were then incubated with transport buffer containing test compound or positive control inhibitor (novobiocin) in both apical and basolateral compartments for 30 minutes at 37° C. For the inhibition studies a P-gp inhibitor or BCRP inhibitor was included on both sides of the monolayer for the equilibration period. The dosing solutions were prepared by diluting estrone 3-sulfate and test compound where applicable to give a final estrone 3-sulfate concentration of 1 μM (final DMSO concentration of 1% v/v). The fluorescent integrity marker lucifer yellow was prepared in receiver solutions in vehicle or test compound-containing transport buffer. After pre-incubation, the transport buffer was removed from both apical and basolateral compartments and replaced with the appropriate dosing or receiver solution. For assessment of B-A permeability, transport buffer was removed from the basolateral companion plate and replaced with dosing solution. Fresh transport buffer containing lucifer yellow and test compound where applicable (final DMSO concentration 1% v/v) was added to the apical compartment insert, which was then placed into the companion plate. After a 90-minute incubation the apical compartment inserts and the companion plates were separated and compartments sampled for analysis. Seven concentrations of compound (up to 100 μM) were assessed in addition to a vehicle control (0 μM). A triplicate determination of each concentration was performed. The positive control inhibitor was evaluated in parallel. [^3H]-estrone 3-sulfate was quantified by liquid scintillation counting to give disintegrations per minute (dpm). The integrity of the monolayer throughout the experiment was checked by monitoring lucifer yellow permeation using fluorimetric analysis. Corrected B-A apparent permeability (Papp) of probe substrate was calculated by subtracting its mean passive Papp determined in the presence of the highest concentration of positive control inhibitor (giving 100% transporter inhibition). The mean corrected B-A Papp from vehicle wells (0 μM test compound) was defined as 100% transport activity and this value was then used to calculate the percentage control transport activity for all other test compound concentrations. Percentage control transport activity was plotted against test compound concentration and fitted to calculate an IC50 value.
(§1) The efflux ratio (ER) values of compounds of the present disclosure are shown in Table B below (“****” means <3; “***” 3≥ and <10; “**” means ≥10 and <30; “*” means ≥30).

[2] = Thermodynamic (equilibrium) solubility assay; type: physicochemical; conditions: aqueous buffer, thermodynamic from solid; 50 mM pH 7.4 phosphate buffer, 24 hours at room temperature
Procedure: Thermodynamic Solubility Studies. The compounds of the present disclosure were tested in an equilibrium solubility assay.
An appropriate amount of test and control compounds were weighed into lower chambers of Whatman Mini-UniPrep vials. To these were added 50 mM pH 7.4 phosphate buffer (450 μL) to get a super-saturated suspension. The samples were vortexed for at least 2 minutes. The Whatman Mini-UniPrep vials were shaken on a shaker for 24 hours at room temperature at 800 rpm. The vials were centrifuged for 20 minutes (eg. 4000 rpm). Samples were compressed to prepare filtrates for injection into HPLC system and the concentration calculated with a standard curve. […] As shown in the table, compounds of the present disclosure may display improved properties (e.g., over the compounds in the prior art), such as enhanced potency, solubility, membrane permeability and transporter efflux.

PAMPA permeability assay = type: in vitro ADME; conditions: 10 μM donor, PBS, 4 hours at room temperature, lecithin/dodecane membrane
Procedure: PAMPA Studies. The compounds of the present disclosure were tested in a PAMPA permeability assay to assess passive transcellular permeation.
Protocol. 0.2 mM working solution was prepared by diluting 10 mM stock solution with DMSO. 10 μM donor solution (5% DMSO) was prepared by diluting 20 μL of working solution with 380 μL PBS. 150 μL of 10 μM donor solutions to each well of the donor plate, whose PVDF membrane was precoated with 5 μL of 1% lecithin/dodecane mixture. Duplicates were prepared. 300 μL of PBS was added to each well of the PTFE acceptor plate. The donor plate and acceptor plate were combined and incubated for 4 hours at room temperature with shaking at 300 rpm. Preparation of TO sample: 20 μL donor solution was transferred to new well followed by the addition of 250 μL PBS (DF: 13.5), 130 μL ACN (containing internal standard) as TO sample. Preparation of acceptor sample: The plate was removed from incubator. 270 μL solution was transferred from each acceptor well and mixed with 130 μL ACN (containing internal standard) as acceptor sample. Preparation of donor sample: 20 μL solution was transferred from each donor well and mixed with 250 μL PBS (DF: 13.5), 130 μL ACN (containing internal standard) as donor sample. Acceptor samples and donor samples were all analysed by LC-MS/MS.
The measured PAMPA permeability values of compounds of the present disclosure are shown in Table B below (“$$$$” means >10 nm/“$$$” means ≥3 and <10 nm/s; “$$” means ≥1 and <3 nm/s; “$” means <1 nm/s).

[3] = test system: IL-1β release upon NLRP3 activation in peripheral blood mononuclear cells (PBMC); test: PBMC IC50 Determination Assay; type: cell-based; conditions: Homo sapiens; LPS-primed PBMC stimulated with ATP (5 mM) or nigericin (10 μM); IL-1β by ELISA (Protocol A) or HTRF (Protocol B); salts tested
Procedure: PBMC IC50 Determination Assay. The compounds of the present disclosure were tested for their inhibitory activity against IL-1β release upon NLRP3 activation in peripheral blood mononuclear cells (PBMC).
Protocol A. PBMC were isolated from buffy coats by density gradient centrifugation on Histopaque-1077 (Sigma, cat no. 10771). Isolated cells were seeded into the wells of a 96-well plate and incubated for 3 h with lipopolysaccharide (LPS). Following medium exchange, the compounds of the present disclosure were added (a single compound per well) and the cells were incubated for 30 min. Next, the cells were stimulated either with ATP (5 mM) or nigericin (10 μM) for 1 h and the cell culture media from the wells were collected for further analysis. The release of IL1-β into the media was determined by a quantitative detection of IL-1β in the media using an IL-1β enzyme-linked immunosorbent assay (ELISA) Ready-SET-Go!, eBioscience cat. No. 88-7261-88. Briefly, in a first step, high affinity binding plates (Corning, Costar 9018 or NUNC Maxisorp Cat No. 44-2404) were coated overnight at 4° C. with specific capture antibody included in the kit (anti-human IL-1β ref. 14-7018-68). Subsequently, plates were blocked with blocking buffer for 1 h at room temperature (rt) and after washing with a buffer (PBS with 0.05% Tween-20) incubated with protein standard and culture media. After 2 h of incubation at rt, plates were washed and incubated with biotinylated detection antibody included in the kit (anti-human IL-1β Biotin ref. 33-7110-68) for 1 h at rt. Plates were washed and incubated with HRP-streptavidin for 30 min at rt and washed again. The signal was developed after addition of 3,3′,5,5′-tetramethylbenzidine-peroxidase (TMB) until colour appeared and the reaction was stopped by 2 M H2SO4. A microplate spectrophotometer (BioTek) was used to detect signals with 450 nm. The detection range of IL-1β 3 ELISA was 2-150 ng/mL.
Protocol B. PBMC were isolated from buffy coats by density gradient centrifugation on Histopaque-1077 (Sigma, cat no. 10771). Isolated cells were seeded into the wells (280,000 cells/well) of a 96-well plate and incubated for 3 h with lipopolysaccharide (LPS, 1 μg/mL diluted 1000× from a 1 mg/mL stock solution). The compounds of the present disclosure were added (a single compound per well) and the cells were incubated for 30 min. Next, the cells were stimulated with ATP (5 mM final concentration diluted 20× from a 100 mM stock solution) for 1 h and the cell culture media from the wells were collected for further analysis. The release of IL-1β into the media was determined by quantitative detection of IL-1 in the media using HTRF®, CisBio cat. No. 62HIL1BPEH. Briefly, cell culture supernatant were dispensed directly into the assay plate containing antibodies labelled with the HTRF® donor and acceptor. A microplate spectrophotometer (BMG) was used to detect signals at 655 nm and 620 nm. The detection range of IL-1β HTRF® was […].

P-glycoprotein (P-gp) = biological target: T1, P-glycoprotein (P-gp) (Homo sapiens, UniProt P08183); test: P-gp MDCK-MDR1 permeability assay; type: in vitro ADME; conditions: efflux ratio, MDCK-MDR1 cells
T1 construct: expressed in transfected cells; host or cells: MDCK-MDR1 cells
T1 sequence (P08183 whole entry): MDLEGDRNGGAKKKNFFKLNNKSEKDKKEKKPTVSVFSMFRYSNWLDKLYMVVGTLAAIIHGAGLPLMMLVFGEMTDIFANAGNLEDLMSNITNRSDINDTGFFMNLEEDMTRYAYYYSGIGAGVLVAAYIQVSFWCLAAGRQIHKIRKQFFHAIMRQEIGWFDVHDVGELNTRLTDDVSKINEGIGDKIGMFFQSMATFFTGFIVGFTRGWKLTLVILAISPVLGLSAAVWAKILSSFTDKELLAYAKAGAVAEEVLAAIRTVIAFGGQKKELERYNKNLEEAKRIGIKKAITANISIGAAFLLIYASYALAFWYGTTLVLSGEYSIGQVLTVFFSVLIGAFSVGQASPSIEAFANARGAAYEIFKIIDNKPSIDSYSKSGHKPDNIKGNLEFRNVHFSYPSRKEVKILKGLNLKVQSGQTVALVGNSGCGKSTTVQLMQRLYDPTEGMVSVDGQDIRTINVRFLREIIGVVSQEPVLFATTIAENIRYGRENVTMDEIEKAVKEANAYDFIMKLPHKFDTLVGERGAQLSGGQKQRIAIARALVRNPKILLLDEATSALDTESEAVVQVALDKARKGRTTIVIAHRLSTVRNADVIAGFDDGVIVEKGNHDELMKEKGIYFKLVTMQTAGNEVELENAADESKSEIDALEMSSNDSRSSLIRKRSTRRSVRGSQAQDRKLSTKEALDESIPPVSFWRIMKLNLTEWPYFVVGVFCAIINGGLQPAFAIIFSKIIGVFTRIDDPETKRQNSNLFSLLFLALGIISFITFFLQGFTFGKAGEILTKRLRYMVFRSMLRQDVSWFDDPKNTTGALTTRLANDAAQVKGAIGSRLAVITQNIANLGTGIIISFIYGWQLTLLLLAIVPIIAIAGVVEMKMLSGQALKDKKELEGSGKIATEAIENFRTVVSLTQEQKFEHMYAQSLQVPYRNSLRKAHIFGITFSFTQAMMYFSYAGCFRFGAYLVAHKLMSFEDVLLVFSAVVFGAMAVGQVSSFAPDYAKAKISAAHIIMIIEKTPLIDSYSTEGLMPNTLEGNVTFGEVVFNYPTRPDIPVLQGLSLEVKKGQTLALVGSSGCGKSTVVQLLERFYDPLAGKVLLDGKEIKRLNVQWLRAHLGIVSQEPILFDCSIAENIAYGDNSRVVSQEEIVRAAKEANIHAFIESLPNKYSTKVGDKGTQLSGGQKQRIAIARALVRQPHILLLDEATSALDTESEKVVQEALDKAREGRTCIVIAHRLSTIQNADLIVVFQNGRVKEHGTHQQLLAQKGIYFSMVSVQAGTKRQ
Procedure: P-gp MDCK-MDR1 Studies. The compounds of the present disclosure were tested in a MDCK-MDR1 permeability assay to assess whether they are actively transported out of cells by the efflux protein, P-glycoprotein (P-gp).
Protocol. MDCK-MDR1 cells were used between passage numbers 6-30. Cells were seeded onto Millipore Multiscreen Transwell plates at 3.4×10^5 cells/cm^2. The cells were cultured in DMEM and media was changed on Day 3. On Day 4 the P-gp inhibition study was performed. Cell culture and assay incubations were carried out at 37° C. in an atmosphere of 5% CO2 with a relative humidity of 95%. On the day of the assay, the monolayers were prepared by rinsing both apical and basolateral surfaces twice with warmed (37° C.) transport buffer (Hanks Balanced Salt Solution [HBSS] containing 25 mM HEPES and 4.45 mM glucose, pH 7.4). Cells were then incubated with transport buffer containing test compound or positive control inhibitor (elacridar) in both apical and basolateral compartments for 30 minutes at 37° C. The dosing solutions were prepared by diluting digoxin and test compound where applicable to give a final digoxin concentration of 5 μM (final DMSO concentration of 1% v/v). The fluorescent integrity marker lucifer yellow was prepared in receiver solutions in vehicle or test compound-containing transport buffer. After pre-incubation, the transport buffer was removed from both apical and basolateral compartments and replaced with the appropriate dosing or receiver solution.
For assessment of B-A permeability, transport buffer was removed from the basolateral companion plate and replaced with dosing solution. Fresh transport buffer containing lucifer yellow and test compound where applicable (final DMSO concentration 1% v/v) was added to the apical compartment insert, which was then placed into the companion plate. After a 90-minute incubation the apical compartment inserts and the companion plates were separated and compartments sampled for analysis. Seven concentrations of test compound (up to 100 μM) were assessed in addition to a vehicle control (0 μM). A triplicate determination of each concentration was performed. The positive control inhibitor was evaluated in parallel. [^3H]-digoxin was quantified by liquid scintillation counting to give disintegrations per minute (dpm). The integrity of the monolayer throughout the experiment was checked by monitoring lucifer yellow permeation using fluorimetric analysis.
as §1

Compound | Caco-2 ER [1] | solubility thermodynamic at 24 h [2] | PAMPA Pe (PAMPA permeability assay) | IC50 [3] | MDCK-MDR1 ER (P-glycoprotein (P-gp))
Cn1cc(N(CC2CCCCO2)S(=O)(=O)NC(=O)Nc2c3c(cc4c2CCC4)CCC3)cn1 (stereo not shown) [Compound 6, Sodium [(1,2,3,5,6,7-hexahydro-s-indacen-4-yl)carbamoyl][(1-methyl-1H-pyrazol-4-yl)[(oxan-2-yl)methyl]sulfamoyl]azanide] | **** (“****” means <3) | 3000 to 10000 µg/mL | $$$$ (“$$$$” means >10 nm/) | < 100 nM | 
Cn1cc(N(CC2CCOC2)S(=O)(=O)NC(=O)Nc2c3c(cc4c2CCC4)CCC3)cn1 (stereo not shown) [Compound 4] | ** (“**” means ≥10 and <30) | 1000 to 3000 µg/mL (≈ 2.18 to 6.53 mM) | $ (“$” means <1 nm/s) | 100 to 1000 nM | 
Cn1cc(N(C[C@@H]2CCCO2)S(=O)(=O)NC(=O)Nc2c3c(cc4c2CC4)CC3)cn1 [Compound 3A, Sodium [(1-methyl-1H-pyrazol-4-yl)({[(2S)-oxolan-2-yl]methyl})sulfamoyl]-({tricyclo[6.2.0.0^3,6]deca-1,3(6),7-trien-2-yl}carbamoyl)azanide] |  |  |  | < 100 nM | * (“*” means ≥30)
Cn1cc(N(CCC2CCCO2)S(=O)(=O)NC(=O)Nc2c3c(cc4c2CCC4)CCC3)cn1 (stereo not shown) [Compound 5, Sodium [(1,2,3,5,6,7-hexahydro-s-indacen-4-yl)carbamoyl][(1-methyl-1H-pyrazol-4-yl)[2-(oxolan-2-yl)ethyl]sulfamoyl]azanide] | *** (“***” 3≥ and <10) | 3000 to 10000 µg/mL | $$ (“$$” means ≥1 and <3 nm/s) | 100 to 1000 nM | 
Cn1cc(N(C[C@@H]2CCCO2)S(=O)(=O)NC(=O)Nc2c3c(cc4c2CCC4)CCC3)cn1 [Compound 1A, Sodium [(1,2,3,5,6,7-hexahydro-s-indacen-4-yl)carbamoyl][(1-methyl-1H-pyrazol-4-yl)({[(2S)-oxolan-2-yl]methyl})sulfamoyl]azanide] | **** (“****” means <3) | 3000 to 10000 µg/mL | $$ (“$$” means ≥1 and <3 nm/s) | < 100 nM | 
Cn1cc(N(C[C@H]2CCCO2)S(=O)(=O)NC(=O)Nc2c3c(cc4c2CCC4)CCC3)cn1 [Compound 1B, Sodium [(1,2,3,5,6,7-hexahydro-s-indacen-4-yl)carbamoyl][(1-methyl-1H-pyrazol-4-yl)({[(2R)-oxolan-2-yl]methyl})sulfamoyl]azanide] | **** (“****” means <3) | 1000 to 3000 µg/mL | $$ (“$$” means ≥1 and <3 nm/s) | < 100 nM | 
